Values of other authors in patent US20040076646A1, “Haptenizing cancer cell components” (priority 2001, published 2004).

Tested on: individuals / adult Americans

Substance: urushiol
- amount of urushiol sufficient to induce the rash response (some individuals, molecular traces): ≤ 2 µg
- proportion of adult Americans who respond (≦50 μg of purified material): 80-90%
